target: T1, Pancreatic triacylglycerol lipase (Sus scrofa, UniProt P00591); assay: Inhibition of porcine pancreatic lipase using p-nitrophenyl butyrate as substrate assessed as formation of p-nitrophenol preincubated for 10 mins followed by substrate addition by spectrophotometric method
T1 sequence (P00591 whole entry): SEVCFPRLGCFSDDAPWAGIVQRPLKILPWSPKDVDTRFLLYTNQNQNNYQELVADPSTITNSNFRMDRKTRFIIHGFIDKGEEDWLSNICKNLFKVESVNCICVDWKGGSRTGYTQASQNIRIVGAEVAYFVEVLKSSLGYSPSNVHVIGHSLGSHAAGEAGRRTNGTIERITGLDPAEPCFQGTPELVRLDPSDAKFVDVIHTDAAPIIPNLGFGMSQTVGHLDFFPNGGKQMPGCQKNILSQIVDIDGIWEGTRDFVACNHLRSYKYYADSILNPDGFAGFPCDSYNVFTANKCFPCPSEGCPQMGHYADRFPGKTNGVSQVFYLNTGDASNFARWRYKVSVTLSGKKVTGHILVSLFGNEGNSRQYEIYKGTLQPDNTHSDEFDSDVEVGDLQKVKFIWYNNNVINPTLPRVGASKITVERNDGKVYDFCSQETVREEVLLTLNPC

IC50	SMILES
480 nM	CC(C)=CCC/C(C)=C\Cc1c(O)ccc2cc(-c3cc(O)c4ccoc4c3)oc12
920 nM	COc1cc(O)cc(-c2cc3ccc(O)c(C/C=C(/C)CCC=C(C)C)c3o2)c1CC=C(C)C
710 nM	CC(C)=CCCC(C)=CCc1c(O)cc2c(c1O)C(=O)C[C@@H](c1ccc(O)c(CC=C(C)C)c1O)O2
850 nM	COc1cc(O)cc(/C=C/c2ccc(O)cc2)c1C/C=C(/C)CCC=C(C)C
760 nM	CC(C)=CCCC1(C)C=Cc2c(O)cc(-c3cc4ccc(O)cc4o3)cc2O1 (centres undefined)
390 nM	CC(C)=CCC/C(C)=C\CC/C(C)=C\Cc1c(O)cc(O)c(CC=C(C)C)c1-c1cc2ccc(O)cc2o1
570 nM	COc1cc(O)cc(-c2cc3ccc(O)cc3o2)c1C/C=C(/C)CC/C=C(/C)CCC=C(C)C
90 nM	CC(C)=CCC/C(C)=C/Cc1c(O)ccc2cc(-c3cc(O)cc(O)c3CC=C(C)C)oc12 [MULBERROFURAN D]
700 nM	CC(C)=CCC/C(C)=C\CC/C(C)=C\Cc1c(O)cc(O)cc1-c1cc2ccc(O)cc2o1 [MULBERROFURAN W]

Source: ChEMBL document CHEMBL3797192, “Potential pancreatic lipase inhibitory activity of phenolic constituents from the root bark of Morus alba L” (Bioorg Med Chem Lett, 2016)
